System: E. coli
Settings: samples loaded by microfluidic manifold and manually (non-manifold control); antibiotic bead minus control bead Ct; FIG. 7
Method: The tetracycline-lyophilized reagent bead 68 was prepared such that each tetracycline-lyophilized reagent bead 68 when dissolved in 10 microliters of water yields a solution containing 0.1, 0.5, 2, and 10, micrograms of tetracycline/mL of water. To complete the trials, the embedded amplification bead 20 in the solid wax 28 was placed at the bottom of each of the amplification reaction vessels 24, and the antibiotic bead 22 was placed on top of the solid wax 28. […] Bacterial growth in the presence of the varying tetracycline concentrations mentioned above was conducted for a period of about three hours at an incubation temperature of 37° C. The temperature was then raised to above the melting point of the solid wax 28, and amplification was performed to assess the inhibitory effects of tetracycline on bacterial growth. The threshold value (Ct) of the amplification reactions were measured. […] The data was normalized by subtracting the mean Ct value for no-drug positive control from individual Ct values across the drug-containing incubations. […]
As shown in the graphical representation of lyophilized drug reagent bead testing 60, the tetracycline concentration 62 for both liquid tetracycline 66, the control group reagent, and tetracycline-lyophilized reagent beads 68 were measured in micrograms per milliliter (μg/mL), relative to the delta Ct values 64 produced by the concentration. […]

For `CN(C)[C@@H]1C(O)=C(C(N)=O)C(=O)[C@@]2(O)C(O)=C3C(=O)c4c(O)cccc4[C@@](C)(O)[C@H]3C[C@@H]12.Cl` [tetracycline, Tetracycline hydrochloride], the “growth inhibition (delta Ct values versus tetracycline concentration)” value was “demonstrated growth inhibition at the same concentrations”.
